In a melting point compilation (Tetko et al.):

melting point [°C]	Structure (SMILES)
178 to 180	N#Cc1ccc(OCC(=O)O)c(Cl)c1
65 to 67	CC(C)(C)c1ccc(-c2nnc(CCl)o2)cc1
209 to 211	Nc1nc2cnc(Cl)nc2s1
111 to 115	NC(=S)COc1ccccc1
82 to 84	O=C(O)CCOc1ccc(F)c(Cl)c1
125 to 127	CCn1c(N)cc(=O)[nH]c1=O
147 to 149	Cc1cccc(Oc2ncccc2N)c1C
249 to 251	COc1ccc(-c2csc3nc(C)[nH]c(=O)c23)cc1OC
129 to 131	CC(SCc1ncc(-c2ccc(Cl)cc2)o1)C(=O)O (configuration not stated)
181 to 183	Cc1ccc(C(=O)O)cc1S(=O)(=O)Nc1cc(Cl)ccc1F
199 to 203	CC1CN(S(=O)(=O)c2ccc(N)cc2)CC(C)O1 (configuration not stated)
92 to 94	COc1ccc(Br)cc1C(=O)CBr
204 to 206	Cc1cc(C(=O)O)sc1C=O
155 to 159	Nc1nc(-c2ccc[nH]2)cs1
130 to 132	CCOc1cccnc1C(=O)O
144 to 146	Cc1cc(CO)c2ccccc2n1
51 to 53	CCOC(=O)COc1ccccc1O
93 to 95	COC(=O)CCNc1ccncc1[N+](=O)[O-]
136 to 138	CCc1ccc(N)cc1S(N)(=O)=O
137 to 139	Nc1cc(Br)cnc1Br
80 to 82	CC(C)c1ccc(-n2ccnc2SCC(=O)O)cc1
199 to 201	Nc1cc(S(N)(=O)=O)ccc1O
178 to 180	Nc1nc2ccccc2n1CCCn1ccnc1

melting point [°C]	Structure (SMILES)
163 to 165	Cc1ccc(C(=O)c2c(N)sc3c2CCC3)c(C)c1
111 to 113	Cc1ccnc(N)c1N
153 to 155	Cc1ccc(-c2nc(N)sc2-c2ccc(C)cc2)cc1
73 to 75	CCOC(=O)c1cnc(N2CCNCC2)s1
99 to 101	Cn1cnc2cc(C=O)ccc21
254 to 256	Cc1c(C(=O)O)c(O)nc2ccccc12
170 to 172	Cc1ccc(NC(=O)C(=O)O)cc1
169 to 171	CC(C)c1nn(-c2ccccc2)cc1C(=O)O
85 to 87	CCS(=O)(=O)c1ccc(Cl)cc1N
151 to 153	Nc1nc(-c2ccc(Cl)s2)ns1
145 to 147	COc1ccc(S(=O)(=O)Cl)cc1NC(C)=O
132 to 134	NC1CCN(c2ccc(C(F)(F)F)cc2)C1=O (configuration not stated)
114 to 116	COc1ccc(OCc2cc(C)on2)c(C(=O)O)c1
274 to 276	COC(=O)c1ccc2c(=O)[nH]c(C)nc2c1
85 to 87	NC(=O)CCOc1ccccc1F
195 to 197	CCn1c(=O)c2ccccc2n2c(CCl)nnc12
137 to 139	NC(=O)c1ccc(F)c(N)c1
95 to 97	CC(Cl)c1nnnn1-c1ccccc1 (configuration not stated)
218 to 220	Cc1ccc(-n2cc(C(=O)O)c(C(C)(C)C)n2)cc1
83 to 85	NC1CCCc2[nH]ccc21 (configuration not stated)
83 to 85	CNS(=O)(=O)c1ccc(C)c(N)c1
194 to 196	O=C(O)c1ncoc1-c1ccccc1Cl
144 to 146	CC1(c2ccc(Br)cc2)CC(=O)NC1=O (configuration not stated)

melting point [°C]	Structure (SMILES)
110 to 112	Cc1nn(-c2ccccc2)c(C)c1CC(=O)O
29 to 31	CNCc1cc(Br)ccc1[N+](=O)[O-]
85 to 87	COc1ccc([N+](=O)[O-])cc1S(=O)(=O)Cl
103 to 105	CC(C)c1cnc(-c2ccc([N+](=O)[O-])cc2)o1
107 to 109	Nc1ccc(Cl)cc1-c1nc(C2CCCC2)no1
84 to 86	CCN(CC)S(=O)(=O)c1cccc(N)c1
218 to 220	Cc1cc(C(N)C(=O)O)ccc1Cl (configuration not stated)
44 to 46	Nc1ccccc1CC(F)(F)F
199 to 201	Cc1cc(C(=O)O)ccc1NC(=O)c1cccs1
317 to 319	O=S(=O)(O)c1ccnc2ccccc12
111 to 113	CC(C)(C)c1nc2cc(N)ccc2o1
135 to 137	CC(=O)c1ccc(-n2cnc3ccccc32)cc1
250 to 252	COc1ccc(-c2nnc(S)[nH]2)c(OC)c1
166 to 168	NC(=O)c1cncc(Cl)n1
199 to 201	Cc1cccn2cc(COc3ccccc3C(=O)O)nc12
136 to 138	O=C(O)CSCc1ccccn1
222 to 224	O=C(O)c1cccnc1NC1CCCC1
62 to 64	Nc1ccc(SCCCO)cc1
188 to 190	N#Cc1cn(-c2ccccc2[N+](=O)[O-])nc1N
119 to 121	CC1CN(C(=O)c2ccccc2N)CC(C)O1 (configuration not stated)
202 to 204	Cc1nc2cc(Cl)ccc2c(=O)n1N
77 to 79	COc1cccc(CO)c1OC(F)F
225 to 227	COc1ccc(C(=O)O)cc1S(=O)(=O)NCc1ccncc1

Further lines, the compound ahead of its results:

Structure (SMILES)	melting point [°C]
O=C(O)CCn1cccn1	76 to 78
CC(N)Cn1cnc2c(cnn2C)c1=O (configuration not stated)	148 to 150
COC(=O)c1c(CC(=O)O)[nH]c(C(C)=O)c1C	205 to 207
O=C(O)CCCOc1cccc2ccccc12	116 to 118
FC(F)(F)c1ccnc(N2CCNCC2)n1	49 to 51
O=C(NC(Cc1c[nH]c2ccccc12)C(=O)O)c1ccc(F)cc1 (configuration not stated)	95 to 98
O=C(CCl)NCCc1ccc2c(c1)OCCO2	72 to 76
CCn1cc(C(=O)C(=O)O)cn1	129 to 131
O=C1Nc2ccc(S(=O)(=O)Cl)c3cccc1c23	197 to 199
CC(C)c1ccc(C2(C(=O)O)CCCC2)cc1	153 to 155
O=C(O)CSc1nnc(-c2ccc(F)cc2)o1	140 to 142
O=C(O)CCNC(=O)Nc1ccc(Br)cc1	248 to 250
COc1cc2c(cc1NC(=O)OCC(F)(F)F)oc1ccccc12	122 to 124
O=C(c1cc(Br)c[nH]1)N1CCCC1	210 to 212
O=C1Cc2cc3c(cc2CCN1)OCCO3	226 to 228
CC(=O)c1ccc(S(=O)(=O)C(F)F)cc1	92 to 94
O=Cc1c(Cl)c2ccccc2oc1=O	113 to 115
NS(=O)(=O)c1ccc(N2CCC(C(=O)O)CC2)c([N+](=O)[O-])c1	181 to 183
O=C(O)C1(c2ccccc2Cl)CCOCC1	201 to 203
COC(=O)c1c(C(=O)CCl)c(C)n(C2CC2)c1C	74 to 78
O=C(O)C(Oc1cc(Cl)ccc1Cl)c1ccccc1 (configuration not stated)	144 to 146
CCOC(C)C(N)=NO (configuration not stated)	88 to 90
O=C(O)c1cc(S(=O)(=O)N2CCOCC2)ccc1I	183 to 185
O=C(O)C1(c2ccc(Br)cc2)CCC1	117 to 119
O=C(O)c1cn(-c2ccccc2C(F)(F)F)nn1	129 to 131

Structure (SMILES)	melting point [°C]
O=C(O)CCSCc1nc2sc3c(c2c(=O)[nH]1)CCC3	227 to 229
CCOc1ccc(NC2CCN(CC(F)(F)F)CC2)cc1	54 to 56
O=C(O)c1cccc(-n2ccc(C(F)(F)F)n2)c1	159 to 161
CN(C)c1c(N)n(C)c(=O)[nH]c1=O	161 to 163
O=[N+]([O-])c1ccc(Cl)c(S(=O)(=O)Nc2nc3ccc(Cl)cc3s2)c1	328 to 330
Cn1c(S)nnc1C1CCC1	124 to 126
O=C(NC1CCCCNC1=O)OCC(F)(F)F (configuration not stated)	199 to 201
Cc1nc(C(C)(C)C)nc(Cl)c1C	36 to 38
CC(C)(C#N)NC(=O)c1ccccc1	166 to 168
O=C(O)CCCNC(=O)c1ccco1	91 to 93
O=C(O)C=Cc1cc(Br)ccc1OCc1ccccc1Cl	192 to 194
O=C(O)CNC(=O)C1CCC1	107 to 109
CCOC(=O)Cc1nn[nH]n1	120 to 127
O=[N+]([O-])c1cc(F)ccc1S(=O)(=O)Cl	40 to 44
O=C1CN=C(S)N1C1CCCCCC1	72 to 74
O=C(O)c1cc2ccc(-c3ccccc3)cc2[nH]1	250 to 252
O=C(O)C1CC1c1cccc(Br)c1 (configuration not stated)	115 to 117
CC(C)(C)OC(=O)NC(CCC(=O)O)c1ccccc1 (configuration not stated)	151 to 153
CC(C)(C(O)c1ccc(Br)cc1)[N+](=O)[O-] (configuration not stated)	106 to 108
O=C(CCl)c1ccc(N2CCOC2=O)cc1	167 to 169
CC1CCC(NC(=O)C(C)Cl)CC1 (configuration not stated)	135 to 137
O=C(O)c1nn(-c2ccc(F)cc2)ccc1=O	240 to 242
CSCc1nnc(S)o1	71 to 73
COC(=O)C(=O)CC(=O)c1ccc(Br)cc1	104 to 106
COc1ccc(NC(=O)c2ccc(CCl)cc2)cc1	189 to 191

Structure (SMILES)	melting point [°C]
CCOC(=O)C(C#N)C(N)=O (configuration not stated)	152 to 154
O=C(CCCl)N1CCN(c2ccccn2)CC1	97 to 99
COC(OC)(OC)c1cc2ccccc2c(=O)[nH]1	131 to 133
COCC(C)NC(N)=O (configuration not stated)	73 to 75
O=C(O)/C=C/c1cn(-c2ccccc2)nc1-c1ccc(Cl)s1	200 to 202
O=[N+]([O-])c1cc(S(=O)(=O)N2CCOCC2)ccc1Cl	153 to 155
COc1ccc(C(=O)O)cc1S(=O)(=O)NC1CCCCC1C (configuration not stated)	201 to 203
COC(=O)Cc1nn[nH]n1	154 to 156
Cc1nc(CCCC(=O)O)cs1	66 to 68
NC(=NO)c1ccc(OCc2ccccc2)cc1	167 to 169
CC(C)Oc1ccc(CCC(=O)O)cc1	74 to 76
FC(F)Oc1cccc(-c2ccc(Cl)nn2)c1	86 to 88
O=C(O)CCCOc1ccc(S(=O)(=O)Cl)cc1F	112 to 114
CN1C(=O)CC(O)C1=O (configuration not stated)	82 to 87
O=C(O)CCCNc1nc2ccccc2s1	110 to 112
N#CC(=Cc1ccco1)C(=O)O	227 to 229
N#CCc1ccc(OCc2ccc(Cl)nc2)cc1	99 to 101
O=C(CCl)N1CCCC1=O	33 to 35
CC(NC(=O)OCC(F)(F)F)c1nncn1C (configuration not stated)	103 to 105
COC(=O)c1ccccc1CBr	31 to 33
CC(C)CCC(C)NC(=O)C1CSCN1 (configuration not stated)	77 to 79
O=C(O)CCc1nnc(-c2ccccc2)o1	144 to 146
CN1CCC(C)(O)CC1	62 to 64
